{"source": "patent US20070179123A1", "about": "“Methods and compositions for treating diseases associated with pathogenic proteins” (priority 2005, published 2007)", "key": {"[1]": {"target": "PrP^Sc in 22L-infected N2a cells (Mus musculus, UniProt P04925)", "sequence (P04925 23-230 limits assumed)": "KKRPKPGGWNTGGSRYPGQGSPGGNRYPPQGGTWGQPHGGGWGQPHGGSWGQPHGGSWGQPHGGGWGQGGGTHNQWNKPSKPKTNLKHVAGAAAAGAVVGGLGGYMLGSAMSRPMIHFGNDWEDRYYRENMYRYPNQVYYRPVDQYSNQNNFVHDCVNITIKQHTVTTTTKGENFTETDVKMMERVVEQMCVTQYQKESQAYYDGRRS", "test": "cell-based", "conditions": "for IC50: IC50 for purging of PRP^Sc in 22L-infected N2a cells"}, "amyloid peptide": {"target": "amyloid peptide (Homo sapiens, UniProt P05067)", "sequence (P05067 672-713)": "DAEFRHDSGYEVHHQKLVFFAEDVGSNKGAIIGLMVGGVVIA", "test": "Inhibition of amyloid fibrillogenesis, Congo Red assay"}, "[2]": {"target": "PrP^Sc in RML-infected N2a cells (Mus musculus, UniProt P04925)", "sequence (P04925 23-230 limits assumed)": "as the sequence (P04925 23-230 limits assumed) above", "test": "cell-based", "conditions": "for IC50: IC50 for purging of PRP^Sc in RML-infected N2a cells"}, "[3]": {"test_system": "yeast PSI^+ (the yeast prion protein Sup35)", "test": "microbe, parasite or virus in culture", "type": "cell-based"}, "[4]": {"target": "yeast prion protein Sup-NM (Saccharomyces cerevisiae, UniProt P05453)", "sequence (P05453 1-254 limits assumed)": "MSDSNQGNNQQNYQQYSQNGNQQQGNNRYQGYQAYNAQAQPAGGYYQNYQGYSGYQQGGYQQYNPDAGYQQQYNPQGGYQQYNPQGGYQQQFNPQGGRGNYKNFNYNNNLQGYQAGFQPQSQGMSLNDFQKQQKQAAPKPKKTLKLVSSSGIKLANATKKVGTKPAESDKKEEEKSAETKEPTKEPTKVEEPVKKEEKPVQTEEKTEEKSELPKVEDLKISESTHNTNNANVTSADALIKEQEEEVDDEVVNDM", "test": "biochemical", "conditions": "for IC50: IC50 for inhibition of Sup35 yeast prion polymerization"}, "22L-infected N2a cells": {"test_system": "22L-infected N2a cells", "test": "Toxicity seen in 22L-infected N2a cell assay (light microscopy)", "type": "cell-based, mouse", "conditions": "@ 10 μM", "protocol": "10 mM solutions of tafenoquine were prepared and diluted in DMSO and then into PBS prior to being introduced to the cell medium. 5 μL of solutions were added to the cell medium. DMSO concentrations in the cell media were never higher than 0.5% (v/v). After tafenoquine was added, the cells were incubated for 5 days at 37° C. in a CO2 incubator before being lysed. Prior to cell lysis, the cells were inspected by light microscopy for toxicity, bacterial contamination, and density compared to controls. After removal of the cell media, 50 μL of lysis buffer was added to each well. Lysis buffer was composed of 0.5% (w/v) Triton X-100, 0.5% (w/v) sodium deoxycholate, 5 mM Tris-HCl, pH 7.4 at 4° C., 5 mM EDTA, and 150 mM NaCl. Five minutes after adding lysis buffer, 25 μL of 0.1 mg/mL PK (Calbiochem) in TBS was added to each well and incubated at 37° C. for 50 minutes. 225 μL of 1 mM Pefabloc (Boehringer Mannheim) was then added to each well to inhibit PK activity. 250 μL of 1 mM Pefabloc was added to samples that were not PK-treated."}, "Aβ42 fibrils": {"target": "Aβ42 fibrils (Homo sapiens, UniProt P05067)", "sequence (P05067 672-713, species assumed)": "as the sequence (P05067 672-713) above", "test": "Fibril disassociation gel assay", "type": "biochemical", "conditions": "3-100 μg/ml compound", "protocol": "(§1) The 40 μM solution was used in fibrillogenesis assay, as described below. The 60 μM peptide solution was undisturbed for six months and allowed to form fibrils, and was utilized in a fibril disassociation assay.\n(§2) Mefloquin was dissolved in DMSO and diluted 100 fold into the final reaction mixture, keeping the DMSO concentration constant at 1% (v/v). After incubation, 10 ul of each sample was mixed with 2.5 μl of 4×SDS-sample buffer (Invitrogen), and loaded onto a precast 12% BT gel (Invitrogen). The electrophoresis was run with MES running buffer (Invitrogen) at 200V, and the gels were stained using a silverXpress silver staining kit (Invitrogen). The lane assignments are as follows: Lane 1: molecular weight markers, 2; 40 μM fresh Aβ42, Lanes 3-7: 40 μM Aβ42 with mefloquin from 0, 3, 10, 30 to 100 μg/ml. Lanes 8-12: 10 μl Aβ42 fibrils with mefloquin from 0, 3, 10, 30 to 100 μg/ml.\n(§3) Gels were photographed and scanned, and the band densities was analyzed using NIH Imagequant, version 5.2 (GE Healthcare, Sunnyvale, Calif.)."}, "Aβ42": {"target": "T1, Aβ42 (Homo sapiens, UniProt P05067)", "T1 construct": "40 μM fresh Aβ42, Lanes 3-7: 40 μM Aβ42 with mefloquin", "T1 sequence (P05067 672-713, species assumed)": "as the sequence (P05067 672-713) above", "test": "Amyloid fibrillogenesis gel assay", "type": "biochemical", "conditions": "40 μM Aβ42, 3-100 μg/ml compound, 5 days", "protocol": "as §1, §2, §3"}}, "note": "Several values for one entry are separate records, joined by “and”; a condition that tells them apart may be missing. Equal entries are not always repeated."}
{"compound": "C=CC1CN2CCC1CC2C(O)c1ccnc2ccc(OC)cc12", "note": "(stereo not drawn)", "values": [{"measurement": "IC50", "setting": "[1]", "result": "3 to 5", "unit": "µM"}]}
{"compound": "CCCCCCN(CCCCCC)CCCCCCNc1cc(OC)cc2c(C)ccnc12", "values": [{"measurement": "IC50", "setting": "amyloid peptide", "result": "< 11", "unit": "µM"}]}
{"compound": "COc1cc(CO)c2c(Oc3cccc(C(F)(F)F)c3)c(OC)cc(NC(C)CCCN)c2n1", "note": "(stereo not drawn) [compound 8]", "values": [{"measurement": "IC50", "setting": "amyloid peptide", "result": "~10.4", "unit": "µM"}]}
{"compound": "COc1cc(C)c2c(Oc3cccc(C(F)(F)F)c3)c(OC)cc(NC(C)CCCNO)c2n1", "note": "(stereo not drawn)", "values": [{"measurement": "IC50", "setting": "[2]", "result": "~10.4", "unit": "µM"}]}
{"compound": "COc1cc(NC(C)CCCN)c2ncccc2c1", "note": "(stereo not drawn)", "values": [{"measurement": "IC50", "setting": "[2]", "result": "< 10", "unit": "µM"}]}
{"compound": "(±)-8-[(4-amino-1-methylbutyl) amino]-2,6-dimethoxy-4-methyl-5-(3-trifluoromethylphenoxy)quinoline [tafenoquine]", "values": [{"measurement": "IC50 for purging of PRP^Sc in 22L-infected N2a cells", "setting": "[1]", "result": 0.44, "unit": "µg/mL"}, {"measurement": "IC50 for inhibition of induction of PSI+", "setting": "[3]; 24 h with 50 μM copper sulfate", "result": 4.5, "unit": "µg/mL"}, {"measurement": "IC50 for inhibition of Sup35 yeast prion polymerization", "setting": "[4]; thioflavin T, 25° C.", "result": "5.2 ± 1.1", "unit": "µg/mL"}, {"measurement": "IC50 for purging of PRP^Sc in RML-infected N2a cells", "setting": "[2]", "result": 0.332, "unit": "µg/mL"}]}
{"compound": "Oc1ccc(Cl)c2cccnc12", "values": [{"measurement": "Toxicity (note in the 22L-infected N2a cells column)", "setting": "22L-infected N2a cells", "result": "Toxic @ 10 μM"}]}
{"compound": "COc1cc(NCCCCCNC(C)C)c2nccc(C)c2c1", "values": [{"measurement": "IC50", "setting": "amyloid peptide", "result": "~15.8", "unit": "µM"}]}
{"compound": "CCC1CN2CCC1CC2[C@H](O)c1ccnc2ccc(OC)cc12", "note": "(stereo partly drawn)", "values": [{"measurement": "IC50", "setting": "[2]", "result": 12.5, "unit": "µM"}]}
{"compound": "C=CC1CN2CCC1CC2[C@H](O)c1ccnc2ccccc12", "note": "(stereo partly drawn)", "values": [{"measurement": "IC50", "setting": "[2]", "result": 18, "unit": "µM"}]}
{"compound": "C=CC1CN2CCC1CC2[C@@H](O)c1ccnc2ccc(OC)cc12", "note": "(stereo partly drawn)", "values": [{"measurement": "IC50", "setting": "[2]", "result": 3, "unit": "µM"}]}
{"compound": "COc1cc(NC(C)CCC(C)(C)N)c2nccc(C)c2c1Oc1cccc(C(F)(F)F)c1", "note": "(stereo not drawn)", "values": [{"measurement": "IC50", "setting": "amyloid peptide", "result": "32.5 to 65", "unit": "µM"}]}
{"compound": "OC(c1cc(C(F)(F)F)nc2c(C(F)(F)F)cccc12)C1CCCCN1", "note": "(racemic) [mefloquine, DL-erythro-α-2-piperidyl-2,8-bis(trifluoromethyl)-4-quinolinemethanol, reference compound]", "values": [{"measurement": "disassociation of amyloid fibrils, gel assay (in words)", "setting": "Aβ42 fibrils", "result": "increase of monomeric amyloid peptide"}, {"measurement": "IC50", "setting": "[1]", "result": "1.27 µM and 1.2 µM"}, {"measurement": "inhibition of the induction of PSI+ (in words)", "setting": "[3]", "result": "concentration dependent inhibition"}, {"measurement": "inhibition of fibrillogenesis of amyloid peptide, gel assay (in words)", "setting": "Aβ42", "result": "inhibited fibrillogenesis"}, {"measurement": "inhibition at 150 µg/mL", "setting": "[4]; read-out: inhibition of the polymerization of Sup-NM", "result": "~55", "unit": "%"}, {"measurement": "IC50", "setting": "[2]", "result": 0.5, "unit": "µM"}]}
{"compound": "COc1cc(NC(C)CCCN)c2nccc(C)c2c1Oc1cccc(C(F)(F)F)c1", "note": "(stereo not drawn) [compound 3]", "values": [{"measurement": "disassociation of amyloid fibrils, gel assay (in words)", "setting": "Aβ42 fibrils", "result": "increase of monomeric amyloid peptide"}, {"measurement": "IC50", "setting": "[1]", "result": "0.508 µM and 1.2 µM"}, {"measurement": "IC50", "setting": "amyloid peptide", "result": 23.1, "unit": "µM"}, {"measurement": "inhibition of fibrillogenesis of amyloid peptide, gel assay (in words)", "setting": "Aβ42", "result": "inhibited fibrillogenesis"}, {"measurement": "IC50", "setting": "[4]; thioflavin T, 25° C.", "result": "~34.6 µM and 34.6 µM"}, {"measurement": "IC50", "setting": "[2]", "result": "0.609 µM and 0.54 µM"}]}
{"compound": "CCC1CN2CCC1CC2[C@@H](O)c1ccnc2ccc(OC)cc12", "note": "(stereo partly drawn)", "values": [{"measurement": "Toxicity (note in the RML-infected N2a cells column)", "setting": "RML-infected N2a cells", "result": "(toxic @ μM)"}]}
{"compound": "CCN(CC)CCCC(C)Nc1cc(OC)cc2c(C)ccnc12", "note": "(stereo not drawn)", "values": [{"measurement": "IC50", "setting": "[1]", "result": "3 to 5", "unit": "µM"}]}
{"compound": "C=CC1CN2CCC1CC2[C@H](O)c1ccnc2ccc(OC)cc12", "note": "(stereo partly drawn)", "values": [{"measurement": "IC50", "setting": "[2]", "result": 6, "unit": "µM"}]}
{"compound": "COc1cc(C)c2c(Oc3cccc(C(F)(F)F)c3)c(OC)cc(NC(C)CCCN)c2n1", "note": "(racemic) [tafenoquine, (±)-8-[(4-amino-1-methylbutyl)amino]-2,6-dimethoxy-4-methyl-5-(3-trifluoromethylphenoxy)quinoline]", "values": [{"measurement": "IC50", "setting": "[1]", "result": "> 2.2", "unit": "µM"}, {"measurement": "IC50", "setting": "[3]; Saccharomyces cerevisiae, 24 h, read-out: IC50 for inhibition of induction of PSI+", "result": 4.5, "unit": "µg/mL"}, {"measurement": "IC50", "setting": "[4]; thioflavin T, 25° C.", "result": 11.2, "unit": "µM"}, {"measurement": "inhibition of Sup-NM amyloid polymerization (in words)", "setting": "[4]; concentrations up to 200 μg/mL", "result": "nearly complete inhibition"}, {"measurement": "IC50", "setting": "[2]", "result": "0.716 µM and 0.72 µM"}]}
{"compound": "C=CC1CN2CCC1CC2[C@@H](O)c1ccnc2ccccc12", "note": "(stereo partly drawn)", "values": [{"measurement": "IC50", "setting": "[2]", "result": 6, "unit": "µM"}]}
